This passage reports inhibition results from PMC6934184, “Selective DNA-PKcs inhibition extends the therapeutic index of localized radiotherapy and chemotherapy” (The Journal of Clinical Investigation, 2019).

This test concerns the target T1, ALK L1196M (Homo sapiens, UniProt Q9UM73, L1196M).
T1 construct: purchased Thermo Fisher Scientific (Life Technologies) SelectScreen
Put plainly: SelectScreen LanthaScreen. It counts as binding. To be noted: read-out: % displacement. Summed up:
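NU5455 was profiled across the SelectScreen Broad panel of kinase activity and binding assays. Z'LYTE reactions such as CSF1R ran at apparent Km ATP, while the Adapta CAMK1 assay used ATP listed as 10. Values are given as percent.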
On the technique in general: In TR-FRET formats the signal depends on donor and acceptor labels being close together.

T1 sequence (Q9UM73 19-1620 L1196M): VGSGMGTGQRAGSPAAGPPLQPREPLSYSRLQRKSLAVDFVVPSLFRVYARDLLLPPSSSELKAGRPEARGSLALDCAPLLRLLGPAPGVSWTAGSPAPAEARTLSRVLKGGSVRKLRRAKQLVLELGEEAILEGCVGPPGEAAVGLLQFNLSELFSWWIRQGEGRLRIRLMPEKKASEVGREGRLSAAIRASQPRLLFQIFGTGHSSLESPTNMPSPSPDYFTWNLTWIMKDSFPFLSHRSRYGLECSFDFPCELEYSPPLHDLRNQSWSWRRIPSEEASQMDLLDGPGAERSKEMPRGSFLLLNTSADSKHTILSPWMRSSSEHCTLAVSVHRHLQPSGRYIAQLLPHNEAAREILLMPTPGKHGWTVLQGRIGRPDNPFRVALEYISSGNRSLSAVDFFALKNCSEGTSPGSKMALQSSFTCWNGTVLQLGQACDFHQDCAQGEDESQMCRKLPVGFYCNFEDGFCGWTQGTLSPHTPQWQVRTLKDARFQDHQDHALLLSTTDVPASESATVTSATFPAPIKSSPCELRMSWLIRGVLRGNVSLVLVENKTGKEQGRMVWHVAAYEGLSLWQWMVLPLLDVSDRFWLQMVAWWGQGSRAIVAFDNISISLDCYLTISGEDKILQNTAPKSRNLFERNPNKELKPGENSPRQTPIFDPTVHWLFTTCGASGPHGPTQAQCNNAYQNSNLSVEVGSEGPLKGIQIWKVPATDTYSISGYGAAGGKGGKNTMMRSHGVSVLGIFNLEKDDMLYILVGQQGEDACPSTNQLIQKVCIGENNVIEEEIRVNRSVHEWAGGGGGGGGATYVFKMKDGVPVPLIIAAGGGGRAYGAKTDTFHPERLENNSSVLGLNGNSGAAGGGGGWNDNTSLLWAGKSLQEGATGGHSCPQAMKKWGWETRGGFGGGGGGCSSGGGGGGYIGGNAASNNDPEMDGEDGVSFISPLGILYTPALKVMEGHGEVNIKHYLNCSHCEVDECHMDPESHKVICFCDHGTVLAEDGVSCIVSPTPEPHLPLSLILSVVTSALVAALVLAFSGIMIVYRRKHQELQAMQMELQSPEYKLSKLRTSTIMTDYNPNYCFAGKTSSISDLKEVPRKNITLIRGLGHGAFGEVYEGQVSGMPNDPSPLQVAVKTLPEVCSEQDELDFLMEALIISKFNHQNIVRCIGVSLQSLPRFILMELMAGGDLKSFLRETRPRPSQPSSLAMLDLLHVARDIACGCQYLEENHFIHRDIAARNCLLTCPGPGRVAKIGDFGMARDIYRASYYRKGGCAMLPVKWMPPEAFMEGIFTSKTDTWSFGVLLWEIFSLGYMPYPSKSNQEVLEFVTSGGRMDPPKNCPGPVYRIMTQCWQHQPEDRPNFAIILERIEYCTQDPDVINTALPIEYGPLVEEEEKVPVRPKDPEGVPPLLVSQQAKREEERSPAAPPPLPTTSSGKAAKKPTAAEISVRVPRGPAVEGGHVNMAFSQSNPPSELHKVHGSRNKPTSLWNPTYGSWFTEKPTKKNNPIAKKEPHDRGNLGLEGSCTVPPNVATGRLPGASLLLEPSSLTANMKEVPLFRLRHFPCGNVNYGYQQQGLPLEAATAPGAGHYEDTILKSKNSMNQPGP

For the compound `CN(C(=O)CN1CCOCC1)c1ccc2sc3c(-c4cccc5c(=O)cc(N6CC7CCC(C6)O7)oc45)cccc3c2c1` [NU5455], the inhibition at 1 µM is -1.7%.
